Columns and labels:
[1] = test system: TRZAWR (Wheat, Winter, cv Riband); assay: Postemergence herbicidal evaluation; format: in vivo, Triticum aestivum
How it was run: (§1)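 Visual 0-9 injury score (stand, vigor, malformation, size, chlorosis, appearance vs untreated) taken four to five weeks post-spray, averaged across repeat tests. Test plants about two weeks old; foliar spray of acetone/water (1:1) with 0.5% surfactant delivering ~0.0156-0.500 kg active/ha.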

ORYSAT (Rice, Tebonnet) = assay: Preemergence herbicidal evaluation; format: in vivo, Oryza sativa, (L.) Tebonnet; details: rated 4-5 weeks after treatment
How it was run: (§2)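 Test compound, dissolved in aqueous acetone, was sprayed over planted soil cups at an equivalent of about 0.0156 to 0.500 kg/ha; seeds had been mixed with potting soil. Greenhouse growth followed, with visual 0-9 scoring of injury at four to five weeks.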

[2] = test system: SAGPY (Arrowhead (Pygmaea)); assay: Preemergence weed control under flooded paddy conditions; format: in vivo, Sagittaria pygmaea; details: rated 3-4 weeks after treatment
How it was run: (§3)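 Ratings on a 0-9 visual scale cover stand, vigor, malformation, size, chlorosis and overall appearance relative to a control, taken three to four weeks post-treatment. Application was into flood water over freshly sown silt loam at roughly 0.0313 to 0.500 kg/ha.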

GALAP (Galium) [3] = assay: Preemergence herbicidal evaluation; format: in vivo, Galium aparine; details: rated 4-5 weeks after treatment
How it was run: as §2

CASOB (Sicklepod) = assay: Postemergence herbicidal evaluation; format: in vivo, Cassia obtusifolia
How it was run: as §1

CYPSE (Flatsedge) = assay: Preemergence weed control under flooded paddy conditions; format: in vivo, Cyperus serotinus; details: rated 3-4 weeks after treatment
How it was run: as §3

AMBEL (Ragweed, Common) = assay: Postemergence herbicidal evaluation; format: in vivo, Ambrosia artemisifolia
How it was run: as §1

[4] = test system: ECHORC (Watergrass (Calif.)); assay: Preemergence weed control under flooded paddy conditions; format: in vivo, Echinochloa oryzoides; details: rated 3-4 weeks after treatment
How it was run: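 Visual injury scored 0-9 against control three to four weeks post-treatment, greenhouse-grown. Application: acetone/water (50/50) solutions dosed directly into flood water (1.5-3 cm over silt loam, planted top 0.5 cm), roughly 0.0313 to 0.500 kg/ha active ingredient.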

[5] = test system: GLXMAW (Soybean, Williams); assay: Postemergence herbicidal evaluation; format: in vivo, Glycine max, (L.) Merr. cv Williams
How it was run: as §1

SETVI (Foxtail, Green) = assay: Preemergence herbicidal evaluation; format: in vivo, Setaria viridis; details: rated 4-5 weeks after treatment
How it was run: as §2

[6] = test system: SAGPY (Arrowhead (Pygmaea)); assay: Postemergence weed control under flooded paddy conditions; format: in vivo, Sagittaria pygmaea; details: postemergence weeds, 3-4 weeks after treatment
How it was run: (§4)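 Herbicidal effect is judged by eye on a 0–9 scale versus control, 3–4 weeks after dosing. Dosing is into flood water kept 1.5–3 cm over the soil, at about 0.0313–0.500 kg/ha in aqueous/acetone 50/50 v/v, on 3–5 cm weeds and 1.5–2.5-leaf rice seedlings.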

GALAP (Galium) [7] = assay: Postemergence herbicidal evaluation; format: in vivo, Galium aparine
How it was run: as §1

[8] = test system: ECHORC (Watergrass (Calif.)); assay: Postemergence weed control under flooded paddy conditions; format: in vivo, Echinochloa oryzoides; details: postemergence weeds, 3-4 weeks after treatment
How it was run: as §4

Compound: CCOP(=O)(CN1C(=O)CSC1=Nc1cc(-n2c(=O)cc(C(F)(F)F)n(C)c2=O)c(F)cc1Cl)OCC [Compound 35, Diethyl {{2-{{2-chloro-5-[3,6-dihydro-3-methyl-2,6-dioxo-4-(trifluoromethyl)-1(2H)-pyrimidinyl]-4-fluorophenyl}imino}-4-oxo-3-thiazolidinyl}methyl}phosphonate]
- Postemergence herbicidal rating TRZAWR ([1]; Rate 0.0158 kg/ha): 2.5
- Postemergence herbicidal rating TRZAWR ([1]; Rate 0.0315 kg/ha): 3.0
- Postemergence herbicidal rating TRZAWR ([1]; Rate 0.0630 kg/ha): 3.5
- Preemergence herbicidal rating ORYSAT (ORYSAT (Rice, Tebonnet); rate 0.0625 kg/ha): 0.0
- Preemergence herbicidal rating ORYSAT (ORYSAT (Rice, Tebonnet); rate 0.1250 kg/ha): 0.0
- Preemergence herbicidal rating ORYSAT (ORYSAT (Rice, Tebonnet); rate 0.2500 kg/ha): 0.0
- Herbicidal rating SAGPY ([2]; 0.1250 kg/ha): 0.0
- Herbicidal rating SAGPY ([2]; 0.2500 kg/ha): 3.0
- Preemergence herbicidal rating GALAP (GALAP (Galium) [3]; rate 0.0625 kg/ha): 0.0
- Preemergence herbicidal rating GALAP (GALAP (Galium) [3]; rate 0.1250 kg/ha): 0.0
- Preemergence herbicidal rating GALAP (GALAP (Galium) [3]; rate 0.2500 kg/ha): 9.0
- Postemergence herbicidal rating CASOB (CASOB (Sicklepod); Rate 0.0158 kg/ha): 0.0
- Postemergence herbicidal rating CASOB (CASOB (Sicklepod); Rate 0.0315 kg/ha): 3.0
- Postemergence herbicidal rating CASOB (CASOB (Sicklepod); Rate 0.0630 kg/ha): 9.0
- Herbicidal rating CYPSE (CYPSE (Flatsedge); 0.1250 kg/ha): 0.0
- Herbicidal rating CYPSE (CYPSE (Flatsedge); 0.2500 kg/ha): 0.0
- Postemergence herbicidal rating AMBEL (AMBEL (Ragweed, Common); Rate 0.0158 kg/ha): 9.0
- Postemergence herbicidal rating AMBEL (AMBEL (Ragweed, Common); Rate 0.0315 kg/ha): 9.0
- Postemergence herbicidal rating AMBEL (AMBEL (Ragweed, Common); Rate 0.0630 kg/ha): 9.0
- Herbicidal rating ECHORC ([4]; 0.1250 kg/ha): 3.0
- Herbicidal rating ECHORC ([4]; 0.2500 kg/ha): 6.0
- Postemergence herbicidal rating GLXMAW ([5]; Rate 0.0158 kg/ha): 7.0
- Postemergence herbicidal rating GLXMAW ([5]; Rate 0.0315 kg/ha): 7.5
- Postemergence herbicidal rating GLXMAW ([5]; Rate 0.0630 kg/ha): 9.0
- Preemergence herbicidal rating SETVI (SETVI (Foxtail, Green); rate 0.0625 kg/ha): 0.0
- Preemergence herbicidal rating SETVI (SETVI (Foxtail, Green); rate 0.1250 kg/ha): 0.0
- Preemergence herbicidal rating SETVI (SETVI (Foxtail, Green); rate 0.2500 kg/ha): 9.0
- Herbicidal rating SAGPY ([6]; rate 0.1250 kg/ha): 0.0
- Herbicidal rating SAGPY ([6]; rate 0.2500 kg/ha): 3.0
- Postemergence herbicidal rating GALAP (GALAP (Galium) [7]; Rate 0.0158 kg/ha): 4.0
- Postemergence herbicidal rating GALAP (GALAP (Galium) [7]; Rate 0.0315 kg/ha): 5.0
- Postemergence herbicidal rating GALAP (GALAP (Galium) [7]; Rate 0.0630 kg/ha): 5.0
- Herbicidal rating ECHORC ([8]; rate 0.1250 kg/ha): 3.0
- Herbicidal rating ECHORC ([8]; rate 0.2500 kg/ha): 6.0

Source: patent US20020137929A1, “1 - (3-heterocyclylphenyl) isothiourea, -isourea, -guanidine and -amidine herbicidal agents” (Intellectual Property Department, BASF Aktiengesellschaft, priority 1998, published 2002)
